Assays:
Assay in all cases: Inhibition Assay
Conditions in all cases: pH 8; 25 °C
[1] = target: T1, Inosine-5'-monophosphate dehydrogenase (Helicobacter pylori (strain G27), UniProt B5Z7J4)
T1 sequence (B5Z7J4 whole entry): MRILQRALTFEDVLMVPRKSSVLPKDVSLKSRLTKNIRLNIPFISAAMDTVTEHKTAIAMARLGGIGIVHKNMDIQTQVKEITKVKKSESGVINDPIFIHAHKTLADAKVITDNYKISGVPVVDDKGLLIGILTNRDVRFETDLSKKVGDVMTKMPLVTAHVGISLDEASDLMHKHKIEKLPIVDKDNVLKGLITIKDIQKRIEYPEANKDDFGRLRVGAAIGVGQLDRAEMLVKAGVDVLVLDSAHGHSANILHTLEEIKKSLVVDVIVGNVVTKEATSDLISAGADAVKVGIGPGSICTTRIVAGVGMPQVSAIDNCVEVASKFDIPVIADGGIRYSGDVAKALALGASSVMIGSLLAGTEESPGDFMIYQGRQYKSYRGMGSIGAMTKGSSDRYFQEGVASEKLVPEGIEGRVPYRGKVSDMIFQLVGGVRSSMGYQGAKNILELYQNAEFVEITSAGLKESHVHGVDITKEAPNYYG
Source text: (§1) Inhibition assay using inosine 5'-onophosphate dehydrogenase (IMPD).

[2] = target: T2, Inosine-5'-monophosphate dehydrogenase (Borreliella burgdorferi (strain ATCC 35210 / DSM 4680 / CIP 102532 / B31), UniProt P49058)
T2 sequence (P49058 whole entry): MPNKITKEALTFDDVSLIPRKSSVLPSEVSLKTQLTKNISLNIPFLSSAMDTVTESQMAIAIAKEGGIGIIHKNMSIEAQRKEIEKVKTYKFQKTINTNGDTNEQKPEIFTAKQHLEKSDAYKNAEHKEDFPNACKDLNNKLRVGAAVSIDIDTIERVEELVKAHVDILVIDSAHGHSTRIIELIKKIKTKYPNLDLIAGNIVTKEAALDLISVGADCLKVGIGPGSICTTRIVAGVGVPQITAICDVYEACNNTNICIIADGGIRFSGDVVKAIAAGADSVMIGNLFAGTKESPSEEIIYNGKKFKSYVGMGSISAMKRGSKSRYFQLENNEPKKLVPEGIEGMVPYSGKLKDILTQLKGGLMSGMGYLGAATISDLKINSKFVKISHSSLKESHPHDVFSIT
Source text: as §1

[3] = target: T3, Inosine-5'-monophosphate dehydrogenase (Cryptosporidium parvum, UniProt Q8T6T2)
T3 sequence (Q8T6T2 whole entry): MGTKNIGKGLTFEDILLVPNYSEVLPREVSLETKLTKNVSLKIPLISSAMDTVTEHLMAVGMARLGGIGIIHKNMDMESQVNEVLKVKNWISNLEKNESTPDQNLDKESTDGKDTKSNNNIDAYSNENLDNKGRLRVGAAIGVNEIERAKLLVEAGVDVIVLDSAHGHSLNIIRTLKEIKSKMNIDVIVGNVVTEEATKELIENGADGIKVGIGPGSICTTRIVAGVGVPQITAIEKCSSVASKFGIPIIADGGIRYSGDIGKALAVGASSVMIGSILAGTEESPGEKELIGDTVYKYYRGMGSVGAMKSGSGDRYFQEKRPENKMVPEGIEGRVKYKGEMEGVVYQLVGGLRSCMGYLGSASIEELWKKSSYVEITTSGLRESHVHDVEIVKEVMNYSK
Source text: as §1

[4] = target: Inosine-5'-monophosphate dehydrogenase (Streptococcus pyogenes, UniProt P0C0H6)
Source text: as §1

Sequence of Inosine-5'-monophosphate dehydrogenase (Streptococcus pyogenes, UniProt P0C0H6) (P0C0H6 whole entry): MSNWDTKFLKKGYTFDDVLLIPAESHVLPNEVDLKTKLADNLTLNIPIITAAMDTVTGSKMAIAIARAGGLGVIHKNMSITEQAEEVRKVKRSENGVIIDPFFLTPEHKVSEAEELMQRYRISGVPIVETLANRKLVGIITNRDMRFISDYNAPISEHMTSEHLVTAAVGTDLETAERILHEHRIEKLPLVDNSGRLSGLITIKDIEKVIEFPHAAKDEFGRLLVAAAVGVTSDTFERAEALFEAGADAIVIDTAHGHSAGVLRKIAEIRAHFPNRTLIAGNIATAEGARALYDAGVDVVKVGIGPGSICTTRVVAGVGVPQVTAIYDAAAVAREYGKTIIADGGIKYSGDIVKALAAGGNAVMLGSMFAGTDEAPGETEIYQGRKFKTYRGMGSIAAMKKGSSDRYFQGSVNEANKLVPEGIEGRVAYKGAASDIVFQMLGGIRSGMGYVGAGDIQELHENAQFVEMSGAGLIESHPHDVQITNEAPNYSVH

Row | SMILES | IC50 [1] | IC50 [2] | IC50 [3] | IC50 [4]
1 | CC(Oc1ccccc1)C(=O)Nc1ccc(Cl)cc1 (centres undefined) | 2200 nM | 1400 nM |  | 96000 nM
2 | COC(=O)c1c(C)c(=O)[nH]c2ccccc12 [methyl 3-methyl-2-oxo-1,2-dihydroquinoline-4-carboxylate, Compound E] | 1500 nM | 900 nM | 1600 nM | 15000 nM
3 | CCn1c(SCC(=O)Nc2ccc(OC)cc2)nc2ccsc2c1=O [l-4-oxo-3H,4H-thieno[3,2-d]pyrimidin-2-yl}sulfanyl)-N-(4-methoxyphenyl)acetamide, Compound F] | 1100 nM | 800 nM | 1400 nM | 13000 nM
4 | COc1ccc(NC(=O)Cc2nn(C)c(=O)c3ccccc23)cc1 [N-(4-methoxyphenyl)-2-(3-methyl-4-oxo-3,4-dihydrophthalazin-1-yl)acetamide, Compound D] | 3000 nM | 1700 nM | 5400 nM | 49000 nM
5 | O=C(Cn1c(-c2ccccn2)nc2ccccc21)Nc1ccc2ccccc2c1 [N-(naphthalen-2-yl)-2-[2-(pyridin-2-yl)-1H-1,3-benzodiazol-1-yl]acetamide, Compound C91] | 1.1 nM |  | 8 nM | 5.4 nM

Other lines, results leading:

Row | IC50 [1] | IC50 [2] | IC50 [3] | IC50 [4] | SMILES
6 | 300 nM | 220 nM | 100 nM | 550 nM | Nc1ccc(C(=O)OCc2nc3cc4ccccc4cc3[nH]2)cc1 [1H-naphtho[2,3-d]imidazol-2-ylmethyl 4-aminobenzoate, Compound G]
7 | 600 nM | 600 nM | 1200 nM | 70000 nM | COc1ccc(NC(=O)Cn2c(-c3cscn3)nc3ccccc32)cc1 [N-(4-methoxyphenyl)-2-[2-(1,3-thiazol-4-yl)-1H-1,3-benzodiazol-1-yl]acetamide, Compound C]
8 | 1200 nM | 900 nM | 900 nM | 860 nM | Nc1ccc(C(=O)OCCCc2nc3cc4ccccc4cc3[nH]2)cc1 [3-{1H-naphtho[2,3-d]imidazol-2-yl}propyl 4-aminobenzoate, Compound H]
9 | 1300 nM | 1800 nM | 1600 nM | 85000 nM | COc1ccc(NC(=O)Cc2cccc3ccccc23)cc1 [N-(4-methoxyphenyl)-2-(naphthalen-1-yl)acetamide, Compound B]

— BindingDB's records for doi:10.1016/j.chembiol.2010.07.014 (Brandeis University, 2010)
